Data as given in patent publication US11384062B2 (CombiPhos Catalysts, Inc., priority 2017, dated 2022).

Legend:
BT-549 = settings: 10 μM single dose; Breast Cancer BT-549
Source text: (§1) The test compounds were screened for anticancer activity at the Development Therapeutic Program (DTP), National Cancer Institute (NCI), USA, against a full NCI 59 cell line panel (six cell lines of leukemia, nine cell lines of lung cancer, seven cell lines of colon cancer, six cell lines of CNS cancer, nine cell lines of melanoma, seven cell lines of ovarian cancer, seven cell lines of renal cancer, two cell lines of prostate cancer, and six cell lines of breast cancer) representing nine human systems in total as leukemia, melanoma, and cancers of the lungs, colon, brain, breast, ovary, kidney, and prostate, according to the applied protocol. A primary in vitro one dose anticancer assay was performed at a single dose (10 μM) against the full NCI 59 cell line panel. The one dose data was reported as a mean graph of the percent growth of treated cells. The number reported for the single dose assay was growth relative to the no drug control and relative to the initial number of cells at time 0. […] A value of −40 means 40% lethality. A value of −100 means all cells are dead.

COLO 205 = settings: 10 μM single dose; Colon Cancer COLO 205
Source text: as §1

DU-145 = settings: 10 μM single dose; Prostate Cancer DU-145
Source text: as §1

HCT-15 = settings: 10 μM single dose; Colon Cancer HCT-15
Source text: as §1

HOP-62 = settings: 10 μM single dose; Non-Small Cell Lung Cancer HOP-62
Source text: as §1

HOP-92 = settings: 10 μM single dose; Non-Small Cell Lung Cancer HOP-92
Source text: as §1

HT29 = settings: 10 μM single dose; Colon Cancer HT29
Source text: as §1

IGROV1 = settings: 10 μM single dose; Ovarian Cancer IGROV1
Source text: as §1

MALME-3M = settings: 10 μM single dose; Melanoma MALME-3M
Source text: as §1

NCI-H23 = settings: 10 μM single dose; Non-Small Cell Lung Cancer NCI-H23
Source text: as §1

NCI-H522 = settings: 10 μM single dose; Non-Small Cell Lung Cancer NCI-H522
Source text: as §1

OVCAR-3 = settings: 10 μM single dose; Ovarian Cancer OVCAR-3
Source text: as §1

RXF 393 = settings: 10 μM single dose; Renal Cancer RXF 393
Source text: as §1

SK-OV-3 = settings: 10 μM single dose; Ovarian Cancer SK-OV-3
Source text: as §1

SN12C = settings: 10 μM single dose; Renal Cancer SN12C
Source text: as §1

SNB-75 = settings: 10 μM single dose; CNS Cancer SNB-75
Source text: as §1

SW-620 = settings: 10 μM single dose; Colon Cancer SW-620
Source text: as §1

T-47D = settings: 10 μM single dose; Breast Cancer T-47D
Source text: as §1

TK-10 = settings: 10 μM single dose; Renal Cancer TK-10
Source text: as §1

UACC-257 = settings: 10 μM single dose; Melanoma UACC-257
Source text: as §1

UO-31 = settings: 10 μM single dose; Renal Cancer UO-31
Source text: as §1

HL-60(TB) = settings: 10 μM single dose; Leukemia HL-60(TB)

Row | SMILES | Growth Percentage (BT-549) [%] | Growth Percentage (COLO 205) [%] | Growth Percentage (DU-145) [%] | Growth Percentage (HOP-92) [%] | Growth Percentage (HT29) [%] | Growth Percentage (IGROV1) [%] | Growth Percentage (MALME-3M) [%] | Growth Percentage (NCI-H23) [%] | Growth Percentage (NCI-H522) [%] | Growth Percentage (OVCAR-3) [%] | Growth Percentage (RXF 393) [%] | Growth Percentage (SK-OV-3) [%] | Growth Percentage (SN12C) [%] | Growth Percentage (SNB-75) [%] | Growth Percentage (SW-620) [%] | Growth Percentage (T-47D) [%] | Growth Percentage (TK-10) [%] | Growth Percentage (UACC-257) [%] | Growth Percentage (UO-31) [%] | Growth Percentage (HL-60(TB)) [%] | also measured
1 | [2H]C1([2H])NC([2H])([2H])C([2H])(c2ccc(-n3cc4cccc(C(N)=O)c4n3)cc2)C([2H])([2H])C1([2H])[2H] (racemic) [Example 3, 2-(4-(piperidin-3-yl-2,2,3,4,4,5,5,6,6-d9)phenyl)-2H-indazole-7-carboxamide] | 113.02 | 94.82 | 97.89 | 98.72 | 93.28 | 83.23 | 91.23 | 91.99 | 83.10 | 103.07 | 111.56 | 96.60 | 93.25 | 76.50 | 84.69 | 98.94 | 98.41 | 97.56 | 80.19 | 89.31 | Growth Percentage (HCT-15): 100.98%; Growth Percentage (HOP-62): 93.86%
2 | [2H]c1c([2H])c(-n2nc3c(C(N)=O)cccc3c2[2H])c([2H])c([2H])c1C1CCCNC1 (racemic) [Example 11, 2-(4-(piperidin-3-yl)phenyl-2,3,5,6-d4)-2H-indazole-3-d-7-carboxamide] | 91.44 | 79.11 | 87.51 | 79.03 | 87.71 | 74.29 | 92.14 | 82.01 | 89.79 | 97.70 | 107.27 | 94.12 | 81.90 | 76.35 | 72.01 | 90.97 | 102.70 | 102.12 | 79.89 | 69.13 | Growth Percentage (HCT-15): 85.76%; Growth Percentage (HOP-62): 94.55%
3 | [2H]c1c([2H])c(C2([2H])C([2H])NC([2H])C([2H])C2[2H])c([2H])c([2H])c1-n1cc2cccc(C(N)=O)c2n1 (stereo not shown) [Example 4, 2-(4-(piperidin-3-yl-2,3,4,5,6-d5)phenyl-2,3,5,6-d4)-2H-indazole-7-carboxamide] | 99.58 | 82.07 | 89.54 | 90.59 | 77.66 | 73.75 | 79.53 | 84.26 | 87.37 | 107.53 | 102.74 | 90.49 | 89.59 | 70.09 | 72.23 | 98.04 | 96.15 | 107.99 | 75.43 | 77.68 | 
